Assay results from ChEMBL document CHEMBL6134857, “Novel Spiro-Barbiturates Can Reverse the Action of General Anesthetics on the GABAAR” (J Med Chem, 2025).

Legend:
Format in all cases: cell membranes
[1] = target: T1, GABA-A receptor; alpha-1/beta-3/gamma-2 (Homo sapiens, UniProt P14867+P18507+P28472); test: Inhibition of R-mTFD-MPAB-induced [3H]muscimol binding to full length human N-terminal flag-tagged alpha1-beta3-C-terminal 1D4-tagged gamma2 GABAA receptor extracted from Tetracycline-resistant HEK293 cell membrane incubated for 30 mins
T1 sequence (P14867 whole entry): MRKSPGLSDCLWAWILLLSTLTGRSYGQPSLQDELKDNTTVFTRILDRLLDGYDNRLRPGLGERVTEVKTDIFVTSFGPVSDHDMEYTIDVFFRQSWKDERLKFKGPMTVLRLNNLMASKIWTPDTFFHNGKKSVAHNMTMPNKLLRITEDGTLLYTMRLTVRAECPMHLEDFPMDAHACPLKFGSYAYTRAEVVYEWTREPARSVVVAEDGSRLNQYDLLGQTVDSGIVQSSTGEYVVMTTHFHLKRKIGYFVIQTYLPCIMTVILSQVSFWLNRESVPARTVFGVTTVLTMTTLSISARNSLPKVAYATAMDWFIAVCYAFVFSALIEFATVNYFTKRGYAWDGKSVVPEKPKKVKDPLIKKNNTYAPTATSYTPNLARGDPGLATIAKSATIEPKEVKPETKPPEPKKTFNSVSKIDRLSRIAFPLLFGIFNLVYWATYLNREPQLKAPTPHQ
T1 sequence (P18507 whole entry): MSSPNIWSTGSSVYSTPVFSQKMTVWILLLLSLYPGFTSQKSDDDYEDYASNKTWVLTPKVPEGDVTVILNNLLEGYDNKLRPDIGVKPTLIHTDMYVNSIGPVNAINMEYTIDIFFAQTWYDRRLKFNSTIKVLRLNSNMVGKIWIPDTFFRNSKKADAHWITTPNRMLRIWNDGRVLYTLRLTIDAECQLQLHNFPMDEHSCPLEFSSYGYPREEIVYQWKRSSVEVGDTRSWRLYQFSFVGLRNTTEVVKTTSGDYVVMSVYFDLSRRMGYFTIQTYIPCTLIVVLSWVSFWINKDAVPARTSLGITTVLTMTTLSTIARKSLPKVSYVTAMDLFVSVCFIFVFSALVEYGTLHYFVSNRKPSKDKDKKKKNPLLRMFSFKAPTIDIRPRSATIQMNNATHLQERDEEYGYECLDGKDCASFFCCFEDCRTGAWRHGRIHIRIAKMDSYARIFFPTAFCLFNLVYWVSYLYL
T1 sequence (P28472 whole entry): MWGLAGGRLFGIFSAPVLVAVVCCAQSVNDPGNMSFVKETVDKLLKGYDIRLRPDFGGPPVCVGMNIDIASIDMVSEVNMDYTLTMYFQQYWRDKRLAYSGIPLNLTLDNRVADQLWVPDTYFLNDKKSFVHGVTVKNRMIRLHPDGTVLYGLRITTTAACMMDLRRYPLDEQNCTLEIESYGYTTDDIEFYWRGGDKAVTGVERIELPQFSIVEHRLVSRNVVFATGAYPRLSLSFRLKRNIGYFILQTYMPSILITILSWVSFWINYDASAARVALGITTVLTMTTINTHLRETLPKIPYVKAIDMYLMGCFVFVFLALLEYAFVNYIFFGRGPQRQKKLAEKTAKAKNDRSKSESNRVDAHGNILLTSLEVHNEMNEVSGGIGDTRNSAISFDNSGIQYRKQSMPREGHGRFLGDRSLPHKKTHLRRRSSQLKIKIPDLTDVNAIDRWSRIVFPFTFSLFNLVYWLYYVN

[2] = target: T2, GABA-A receptor; alpha-1/beta-3/gamma-2 (Homo sapiens) (UniProt P14867+P18507+P28472); test: Inhibition of [3H]flunitrazepam binding to full length human N-terminal flag-tagged alpha1-beta3-C-terminal 1D4-tagged gamma2 GABAA receptor extracted from Tetracycline-resistant HEK293 cell membrane assessed as reduction in [3H]flunitrazepam binding at 300 uM incubated for 30 mins relative to control
[3] = target: T2, GABA-A receptor; alpha-1/beta-3/gamma-2 (Homo sapiens); test: Inhibition of R-mTFD-MPAB-induced [3H]muscimol binding to full length human N-terminal flag-tagged alpha1-beta3-C-terminal 1D4-tagged gamma2 GABAA receptor extracted from Tetracycline-resistant HEK293 cell membrane assessed as fold change at 300 uM incubated for 30 mins; conditions: filed as modulator
[4] = target: T2, GABA-A receptor; alpha-1/beta-3/gamma-2 (Homo sapiens); test: Effect on [3H]muscimol binding to full length human N-terminal flag-tagged alpha1-beta3-C-terminal 1D4-tagged gamma2 GABAA receptor extracted from Tetracycline-resistant HEK293 cell membrane assessed as fold change in [3H]muscimol binding at 300 uM incubated for 30 mins; conditions: filed as modulator
[5] = target: T1, GABA-A receptor; alpha-1/beta-3/gamma-2; test: Positive allosteric modulation on [3H]muscimol binding to full length human N-terminal flag-tagged alpha1-beta3-C-terminal 1D4-tagged gamma2 GABAA receptor extracted from Tetracycline-resistant HEK293 cell membrane assessed as [3H]muscimol binding incubated for 30 mins
[6] = target: T2, GABA-A receptor; alpha-1/beta-3/gamma-2 (Homo sapiens); test: Positive allosteric modulation on R-mTFD-MPAB-induced [3H]muscimol binding to full length human N-terminal flag-tagged alpha1-beta3-C-terminal 1D4-tagged gamma2 GABAA receptor extracted from Tetracycline-resistant HEK293 cell membrane at 300 uM incubated for 30 mins relative to control
[7] = target: T2, GABA-A receptor; alpha-1/beta-3/gamma-2 (Homo sapiens); test: Inhibition of R-mTFD-MPAB-induced [3H]muscimol binding to full length human N-terminal flag-tagged alpha1-beta3-C-terminal 1D4-tagged gamma2 GABAA receptor extracted from Tetracycline-resistant HEK293 cell membrane at 300 uM incubated for 30 mins relative to control
[8] = target: T2, GABA-A receptor; alpha-1/beta-3/gamma-2 (Homo sapiens); test: Effect on [3H]muscimol binding to full length human N-terminal flag-tagged alpha1-beta3-C-terminal 1D4-tagged gamma2 GABAA receptor extracted from Tetracycline-resistant HEK293 cell membrane assessed as [3H]muscimol binding at 300 uM incubated for 30 mins relative to control
[9] = target: T2, GABA-A receptor; alpha-1/beta-3/gamma-2 (Homo sapiens); test: Modulation of [3H]flunitrazepam binding to full length human N-terminal flag-tagged alpha1-beta3-C-terminal 1D4-tagged gamma2 GABAA receptor extracted from Tetracycline-resistant HEK293 cell membrane assessed as fold change in [3H]flunitrazepam binding at 300 uM incubated for 30 mins; conditions: filed as modulator
[10] = target: T1, GABA-A receptor; alpha-1/beta-3/gamma-2; test: Mixed-type inhibition of R-mTFD-MPAB-induced [3H]muscimol binding to full length human N-terminal flag-tagged alpha1-beta3-C-terminal 1D4-tagged gamma2 GABAA receptor extracted from Tetracycline-resistant HEK293 cell membrane incubated for 30 mins
[11] = target: T1, GABA-A receptor; alpha-1/beta-3/gamma-2; test: Mixed effect on [3H]muscimol binding to full length human N-terminal flag-tagged alpha1-beta3-C-terminal 1D4-tagged gamma2 GABAA receptor extracted from Tetracycline-resistant HEK293 cell membrane assessed as [3H]muscimol binding incubated for 30 mins

Structure (SMILES)	IC50 [1]	fold change (FC) [3]	fold change (FC) [4]	EC50 [5]	further results
O=C1NC(=O)C2(CCc3ccccc32)C(=O)N1	18 µM	0.53	-0.02		inhibition [2]: 12%
CC(C)c1ccc2c(c1)C1(CC2)C(=O)NC(=O)N(C)C1=O (stereo in doubt; 5h-2)				38 µM	
CC(C)c1ccc2c(c1)C1(CC2)C(=O)NC(=O)NC1=O		0.9	0.26	22 µM	Activity [6]: 20%; inhibition [7]: > 40%; Activity [8]: < 10%
O=C1NC(=O)C2(CC(O)c3ccccc32)C(=O)N1 (stereo in doubt; 1t-2)	113 µM				
CN=C1NC(=O)C2(CCc3ccccc32)C(=O)N1 (stereo not drawn)	99 µM	0.35	-0.09		
CC(C)c1ccc2c(c1)C1(CC2)C(=O)NC(=O)N(C)C1=O (stereo in doubt; 5h-1) [listing 1 of 2 here]		0.73	0.8		fold change (FC) [9]: 0.84; Activity ([6]; filed as positive allosteric modulator): 80%; inhibition [2]: 12%
Cc1ccc2c(c1)C1(CC2)C(=O)NC(=O)N(C)C1=O (stereo in doubt; 4h-2)					IC50 [10]: 38 µM; EC50 [11]: 32 µM
CC(C)c1ccc2c(c1)C1(CC2)C(=O)NC(=O)N(C)C1=O (stereo in doubt; 5h-1) [listing 2 of 2 here]				32 µM	
